Measurements published in ChEMBL document CHEMBL1154959, “The role of phosphate in the action of thymidine phosphorylase inhibitors: Implications for the catalytic mechanism” (Bioorg Med Chem Lett, 2010).
The source made the active and inactive calls. The calls are words filed in the database; no cut-off is given here.

What follows are compounds tested against Thymidine phosphorylase (Escherichia coli K-12) (UniProt P07650) (assay: Inhibition of Escherichia coli thymidine phosphorylase by spectrophotometry).
Chain of Thymidine phosphorylase (Escherichia coli K-12) (P07650 whole entry, looked up): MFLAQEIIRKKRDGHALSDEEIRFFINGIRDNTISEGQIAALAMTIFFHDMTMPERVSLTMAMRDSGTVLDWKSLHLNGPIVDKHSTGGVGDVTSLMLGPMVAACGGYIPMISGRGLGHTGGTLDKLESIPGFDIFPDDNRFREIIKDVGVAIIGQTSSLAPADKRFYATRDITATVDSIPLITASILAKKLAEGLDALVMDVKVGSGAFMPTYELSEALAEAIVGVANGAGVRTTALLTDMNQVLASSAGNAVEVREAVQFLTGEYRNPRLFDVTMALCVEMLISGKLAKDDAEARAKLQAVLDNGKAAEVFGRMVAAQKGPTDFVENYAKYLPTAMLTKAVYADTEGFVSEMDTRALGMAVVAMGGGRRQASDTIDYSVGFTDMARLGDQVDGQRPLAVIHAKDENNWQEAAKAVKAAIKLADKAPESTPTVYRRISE
`Nc1nccn1Cc1[nH]c(=O)[nH]c(=O)c1F` was tested, and the Activity was “Active”.

What follows are compounds tested against Thymidine phosphorylase (Escherichia coli K-12, UniProt P07650) (assay: Inhibition of Escherichia coli thymidine phosphorylase).
Chain of Thymidine phosphorylase (P07650 whole entry): as the sequence (P07650 whole entry, looked up) above
Compound `Nc1c(Br)c(=O)[nH]c(=O)n1CCCCCCCCP(=O)(O)O` has a Ki of 476000 nM.
Work on `N=C1CCCN1Cc1[nH]c(=O)[nH]c(=O)c1Cl` yielded a Ki of 35 nM.
With `Nc1nccn1Cc1[nH]c(=O)[nH]c(=O)c1F` the Ki was 11 nM.
Work on `Cc1cn([C@@H]2O[C@H](CO)[C@H]3C[C@@H](CP(=O)(O)O)O[C@H]32)c(=O)[nH]c1=O` yielded a Ki of 1000 nM.
Compound `O=c1[nH]c(Cn2ccnc2)c(F)c(=O)[nH]1` has a Ki of 51 nM.
